Assay results published in BindingDB's records for doi:10.1016/j.bmc.2004.08.050 (Yamanouchi Pharmaceutical, 2004).

Assays:
Assay in all cases: HIV-1 RT Assay
[1] = target: T1, Gag-Pol polyprotein [588-1127,Y768C]/[588-1147,Y768C] (Human immunodeficiency virus 1, UniProt P04585, Y768C)
T1 construct: 588-1127; 588-1147

[2] = target: T2, Gag-Pol polyprotein [588-1027,K690N]/[588-1147,K690N] (Human immunodeficiency virus 1, UniProt P04585, K690N)
T2 construct: 588-1027; 588-1147

[3] = target: T3, Gag-Pol polyprotein [588-1027]/[588-1147] (Human immunodeficiency virus 1, UniProt P04585)
T3 construct: 588-1027; 588-1147

Structure (SMILES)	IC50 [1] [nM]	IC50 [2] [µM]	IC50 [3] [nM]	IC50 ([1]; pH 8.4, 37 °C) [nM]	IC50 ([2]; pH 8.4, 37 °C) [µM]	IC50 ([3]; pH 8.4, 37 °C) [nM]
CC(C)c1s/c(=N\S(=O)(=O)c2cccc([N+](=O)[O-])c2)n(C)c1C(F)(F)F [N-[(2Z)-3-methyl-5-(propan-2-yl)-4-(trifluoromethyl)-2,3-dihydro-1,3-thiazol-2-ylidene]-3-nitrobenzene-1-sulfonamide]	260	42	600			
Cc1c(C(C)C)s/c(=N\S(=O)(=O)c2cccc([N+](=O)[O-])c2)n1C [N-(3,4-Dimethyl-5-isopropyl-1,3-thiazol-2(3H)-ylidene)-3-nitrobenzenesulfonamide]				71	20	340
CC(=O)c1sc(=NS(=O)(=O)c2cccc([N+](=O)[O-])c2)n(C)c1C [N-[(2Z)-5-acetyl-3,4-dimethyl-2,3-dihydro-1,3-thiazol-2-ylidene]-3-nitrobenzene-1-sulfonamide]	> 50000	> 50	> 50000			
CC(C)Cc1c(C(C)C)s/c(=N\S(=O)(=O)c2cccc([N+](=O)[O-])c2)n1C [N-(4-Isobutyl-5-isopropyl-3-methyl-1,3-thiazol-2(3H)-ylidene)-3-nitrobenzenesulfonamide]	> 25000	> 50	> 50000			
CCn1c(C)c(C(C)(C)C)s/c1=N\S(=O)(=O)c1cccc([N+](=O)[O-])c1 [N-[(2Z)-5-tert-butyl-3-ethyl-4-methyl-2,3-dihydro-1,3-thiazol-2-ylidene]-3-nitrobenzene-1-sulfonamide]	120	> 50	6000			
Cc1[nH]/c(=N/S(=O)(=O)c2cccc([N+](=O)[O-])c2)sc1C(C)(C)C [N-(5-tert-Butyl-4-methyl-1,3-thiazol-2-yl)-3-nitrobenzenesulfonamide]				470	32	370
Cc1c(C(C)(C)C)s/c(=N\S(=O)(=O)c2cccc([N+](=O)[O-])c2)n1C [3-substituted thiazolidene deriv. 17a]				66	13	270
CC(C)c1s/c(=N\S(=O)(=O)c2cccc([N+](=O)[O-])c2)n(C)c1C#N [N-(4-Cyano-5-isopropyl-3-methyl-1,3-thiazol-2(3H)-ylidene)-3-nitrobenzenesulfonamide]	640	> 50	620			
COC(=O)c1c(C(C)C)s/c(=N\S(=O)(=O)c2cccc([N+](=O)[O-])c2)n1C [Methyl 5-isopropyl-3-methyl-2-{[(3-nitrophenyl)-sulfonyl]imino}-2,3-dihydro-1,3-thiazole-4-carboxylate]	> 25000	> 50	> 50000			
Cc1s/c(=N\S(=O)(=O)c2cccc([N+](=O)[O-])c2)n(C)c1C [3-nitro-N-[(2Z)-3,4,5-trimethyl-2,3-dihydro-1,3-thiazol-2-ylidene]benzene-1-sulfonamide]				33000	> 50	970
C=Cc1s/c(=N\S(=O)(=O)c2cccc([N+](=O)[O-])c2)n(C)c1C [N-(3,4-Dimethyl-5-vinyl-1,3-thiazol-2(3H)-ylidene)-3-nitrobenzenesulfonamide]	9600	6.2	150			
CC(C)c1s/c(=N\S(=O)(=O)c2cccc([N+](=O)[O-])c2)n(C)c1C(N)=O [5-Isopropyl-3-methyl-2-{[(3-nitrophenyl)sulfonyl]imino}-2,3-dihydro-1,3-thiazole-4-carboxamide]	> 25000	> 50	39000			
Cc1cs/c(=N\S(=O)(=O)c2cccc([N+](=O)[O-])c2)n1C [N-[(2Z)-3,4-dimethyl-2,3-dihydro-1,3-thiazol-2-ylidene]-3-nitrobenzene-1-sulfonamide]				> 50000	> 50	> 50000
CCc1s/c(=N\S(=O)(=O)c2cccc([N+](=O)[O-])c2)n(C)c1C [N-[(2Z)-5-ethyl-3,4-dimethyl-2,3-dihydro-1,3-thiazol-2-ylidene]-3-nitrobenzene-1-sulfonamide]				470	6.3	850
CC(C)c1cn(C)/c(=N/S(=O)(=O)c2cccc([N+](=O)[O-])c2)s1 [N-[(2Z)-3-methyl-5-(propan-2-yl)-2,3-dihydro-1,3-thiazol-2-ylidene]-3-nitrobenzene-1-sulfonamide]	700	> 50	600			
CC(C)c1s/c(=N\S(=O)(=O)c2cccc([N+](=O)[O-])c2)n(C)c1Cl [thiazolidenebenzenesulfonamide deriv. 17k]	130	6.9	77			
